Experimental data reported in US8209131B2, “Therapeutic heparins and their binding to interleukins 4 and 5 and PECAM-1” (Curtin University of Technology, priority 2004, dated 2012).
Like-named read-outs stand apart in the source and are kept apart here.

Experiments:
[1] = BIAcore binding of proteins to heparin immobilised on a biosensor chip; conditions: for binding to immobilized heparin: recombinant proteins, FIG. 2
Excerpt: This technology uses the optical phenomenon of surface plasmon resonance to monitor physical interactions between molecules. Passing the protein solution over a sensor surface to which the ligand is coupled monitors the real-time binding of proteins to an immobilized ligand. Detection is achieved by measuring refractive index changes very close to the sensor surface. When the refractive index is altered, the angle at which plasmon resonance occurs changes and this change directly correlates with the amount of protein interacting with the surface. A BIAcore 2000 is conveniently used. It is very sensitive and its microfluidics ensures that only small amounts of material are required.
The HLGAGs are immobilized on the biosensor chip. Intact HLGAGs are biotinylated via amino groups, or reducing termini modified with ammonia by reductive amination, using sulfo-NHS-biotin. Biotinylated HLGAGs are immobilized on streptavidin-coupled sensor chips. Solutions containing proteins of interest are injected over the sensor chip surface, and the binding is measured in real time (Fernig, In: Proteoglycan protocols, Ed. R.V. Iozzo, Humana Press, Totowa, N.J., USA, 2001). […] In all cases binding is specific, as there is little or no interaction with sensor chips lacking heparin with any of the targeted proteins, and binding is inhibited by exogenous heparin. Initial analyzes indicate that the binding of rhIL-5 to heparin has affinity constants of the order from 50-5×10^−9. Because unsubstituted amines are variably present in heparan sulfates from different tissues, an alternative method of biotin labeling is recommended for the heparan sulfate chip. In this case, heparan sulfate is labeled via oxidized cis-diol residues using biotinyl-LC-hydrazine. […]
Binding experiments with these proteins has indicated to which PECAM-1 domains heparin binds. Two binding assays were used: the assay where PECAM-1 is reacted with a BIAcore biosensor chip to which heparin has been immobilised and the second assay is the binding of PECAM-1 to heparan sulfate on the cell surface.
Site directed mutagenesis was performed on IL-4. Basic residues within the proposed heparin binding site were changed to alanine and the proteins expressed using the baculovirus expression system. The one exception was R88 which was changed to valine. Insect cell expressed proteins were purified on an anti-IL-4 affinity column and checked for purity by SDS-PAGE and silver staining. Mutant IL-4 proteins were examined for their ability to bind heparin immobilised on a biosensor chip and binding assessed using a BIAcore 2000.

TF1.8 cells = experiment: TF1.8 bioassay of IL-4 mutants (support of proliferation); type: cell-based, human; conditions: IL-4 wt and mutants, TF1.8 cells
Description: TF-1.8 cells have been transfected with the firefly luciferase gene contained in the expression vector, pPGK-puromycin-luciferase (Coombe et al., 1998, Supra). The positive transfectants are cloned to produce a line with good luciferase expression. The proliferation assays are carried out in 96-well microplates suitable for such assays Falcon). The wells are flat bottomed, with white sides and a clear bottom. Cells are washed to remove any cytokine in the growth medium and then resuspended in RPMI/5% w/v FCS. The cells are counted with a Coulter Multisizer (Coulter Electronics, England) and routinely 2.5×10^4 cells are added to microplate wells that contain either no IL-4 (negative control) or various dilutions of IL-4. When the effect of HLGAGs, chondroitin sulfate C, or the heparin fractions of a particular length, or heparin fragments of a particular length and structure is to be measured, the wells also contain various concentrations of these molecules.
The cells proliferate for 48 hours at 37° C. in a humidified atmosphere, after which the luciferase activity is measured by the addition of 50 μl of luciferase substrate buffer (50 mm Tris-HCl, pH 7.8, 15 mM MgSO4, 33.3 mM DTT, 0.1 mM EDTA, 0.5 mM Na-luciferin, 0.5 mM ATP, 0.25 mM lithium Co A and 0.5% v/v Triton X-100). […] Light emissions are detected on a Victor 1420 Multilabel counter (Wallac, Turku, Finland). […]

Substance | binding to immobilized heparin [1] | binding of PECAM-1 constructs to immobilised heparin [1] | Kd ([1]; FIG. 24, several IL-4 concentrations, read-out: estimated KD of wild-type IL-4 binding to heparin) | ka ([1]; IL-4 WT and mutants binding to heparin, in M-1s-1 (unit assumed)) | kd ([1]; IL-4 WT and mutants binding to heparin, in s-1 (unit assumed)) | Kd ([1]; IL-4 WT and mutants binding to heparin, read-out: KD) | Conc needed for 50% growth, average (TF1.8 cells)
rhIL-5: baculovirus expressed human IL-5 | readily bind to heparin | – | – | – | – | – | –
flag-PECAM-1: extracellular domain of PECAM-1 fused to the flag affinity tag, Cos-7 expressed | readily bind to heparin | can bind to the heparin chip | – | – | – | – | –
WT: recombinant human wild-type IL-4 | readily bind to heparin | – | 5 to 10 nM | 5.68E+04 | 2.88E−03 | 52.7 nM | 0.99 ng/mL
CypA: E. coli expressed Cyclophilin A | readily bind to heparin | – | – | – | – | – | –
